Reference: the NIST ThermoML archive (doi:10.1016/j.jct.2015.04.029)

Experiments:
[1] = wn = mass fraction of the nth substance listed; details: for surface tension liquid-gas: Maximal bubble pressure; for mass density: 100 kPa, Liquid, Vibrating tube method
[2] = refractive index (Na D-line) (dimensionless); wn = mass fraction of the nth substance listed; details: 100 kPa, Liquid, Standard Abbe refractometry

CCC[n+]1ccn(C)c1.N[C@@H](CO)C(=O)[O-] [1-methyl-3-propylimidazolium L-serinate] + O
Details	mass density [kg/m3]	refractive index	surface tension liquid-gas [mN/m]
[1], 298.15 K, w2 = 0.00636	1181.69	–	–
[1], 298.15 K, w2 = 0.00641	–	–	50.2
[1], 298.15 K, w2 = 0.00785	1181.73	–	–
[1], 298.15 K, w2 = 0.00791	–	–	50.8
[1], 298.15 K, w2 = 0.00939	1181.78	–	–
[1], 298.15 K, w2 = 0.00942	–	–	51.7
[1], 298.15 K, w2 = 0.0109	1181.82	–	–
[1], 298.15 K, w2 = 0.01091	–	–	52.5
[1], 298.15 K, w2 = 0.0124	1181.86	–	–
[1], 298.15 K, w2 = 0.01241	–	–	53.2
[1], 303.15 K, w2 = 0.00636	1178.52	–	–
[1], 303.15 K, w2 = 0.00641	–	–	49.9
[1], 303.15 K, w2 = 0.00785	1178.56	–	–
[1], 303.15 K, w2 = 0.00791	–	–	50.5
[1], 303.15 K, w2 = 0.00939	1178.61	–	–
[1], 303.15 K, w2 = 0.00942	–	–	51.4
[1], 303.15 K, w2 = 0.0109	1178.65	–	–
[1], 303.15 K, w2 = 0.01091	–	–	52.1
[1], 303.15 K, w2 = 0.0124	1178.69	–	–
[1], 303.15 K, w2 = 0.01241	–	–	52.9
[1], 308.15 K, w2 = 0.00636	1175.36	–	–
[1], 308.15 K, w2 = 0.00641	–	–	49.6
[1], 308.15 K, w2 = 0.00785	1175.39	–	–
[1], 308.15 K, w2 = 0.00791	–	–	50.2
[1], 308.15 K, w2 = 0.00939	1175.43	–	–
[1], 308.15 K, w2 = 0.00942	–	–	50.9
[1], 308.15 K, w2 = 0.0109	1175.47	–	–
[1], 308.15 K, w2 = 0.01091	–	–	51.8
[1], 308.15 K, w2 = 0.0124	1175.52	–	–
[1], 308.15 K, w2 = 0.01241	–	–	52.5
[1], 313.15 K, w2 = 0.00636	1172.21	–	–
[1], 313.15 K, w2 = 0.00641	–	–	49.2
[1], 313.15 K, w2 = 0.00785	1172.24	–	–
[1], 313.15 K, w2 = 0.00791	–	–	49.9
[1], 313.15 K, w2 = 0.00939	1172.29	–	–
[1], 313.15 K, w2 = 0.00942	–	–	50.5
[1], 313.15 K, w2 = 0.0109	1172.33	–	–
[1], 313.15 K, w2 = 0.01091	–	–	51.4
[1], 313.15 K, w2 = 0.0124	1172.37	–	–
[1], 313.15 K, w2 = 0.01241	–	–	52
[1], 318.15 K, w2 = 0.00636	1169.06	–	–
[1], 318.15 K, w2 = 0.00641	–	–	48.8
[1], 318.15 K, w2 = 0.00785	1169.09	–	–
[1], 318.15 K, w2 = 0.00791	–	–	49.5
[1], 318.15 K, w2 = 0.00939	1169.13	–	–
[1], 318.15 K, w2 = 0.00942	–	–	50.1
[1], 318.15 K, w2 = 0.0109	1169.18	–	–
[1], 318.15 K, w2 = 0.01091	–	–	50.9
[1], 318.15 K, w2 = 0.0124	1169.22	–	–
[1], 318.15 K, w2 = 0.01241	–	–	51.6
[1], 323.15 K, w2 = 0.00636	1165.86	–	–
[1], 323.15 K, w2 = 0.00641	–	–	48.5
[1], 323.15 K, w2 = 0.00785	1165.89	–	–
[1], 323.15 K, w2 = 0.00791	–	–	49.2
[1], 323.15 K, w2 = 0.00939	1165.94	–	–
[1], 323.15 K, w2 = 0.00942	–	–	49.8
[1], 323.15 K, w2 = 0.0109	1165.98	–	–
[1], 323.15 K, w2 = 0.01091	–	–	50.6
[1], 323.15 K, w2 = 0.0124	1166.03	–	–
[1], 323.15 K, w2 = 0.01241	–	–	51.2
[1], 328.15 K, w2 = 0.00636	1162.76	–	–
[1], 328.15 K, w2 = 0.00641	–	–	48.2
[1], 328.15 K, w2 = 0.00785	1162.79	–	–
[1], 328.15 K, w2 = 0.00791	–	–	48.8
[1], 328.15 K, w2 = 0.00939	1162.83	–	–
[1], 328.15 K, w2 = 0.00942	–	–	49.5
[1], 328.15 K, w2 = 0.0109	1162.87	–	–
[1], 328.15 K, w2 = 0.01091	–	–	50.2
[1], 328.15 K, w2 = 0.0124	1162.91	–	–
[1], 328.15 K, w2 = 0.01241	–	–	50.8
[1], 333.15 K, w2 = 0.00636	1159.67	–	–
[1], 333.15 K, w2 = 0.00641	–	–	47.8
[1], 333.15 K, w2 = 0.00785	1159.7	–	–
[1], 333.15 K, w2 = 0.00791	–	–	48.5
[1], 333.15 K, w2 = 0.00939	1159.74	–	–
[1], 333.15 K, w2 = 0.00942	–	–	49.1
[1], 333.15 K, w2 = 0.0109	1159.79	–	–
[1], 333.15 K, w2 = 0.01091	–	–	49.7
[1], 333.15 K, w2 = 0.0124	1159.83	–	–
[1], 333.15 K, w2 = 0.01241	–	–	50.4
[1], 338.15 K, w2 = 0.00636	1156.58	–	–
[1], 338.15 K, w2 = 0.00641	–	–	47.5
[1], 338.15 K, w2 = 0.00785	1156.62	–	–
[1], 338.15 K, w2 = 0.00791	–	–	48.2
[1], 338.15 K, w2 = 0.00939	1156.65	–	–
[1], 338.15 K, w2 = 0.00942	–	–	48.7
[1], 338.15 K, w2 = 0.0109	1156.69	–	–
[1], 338.15 K, w2 = 0.01091	–	–	49.3
[1], 338.15 K, w2 = 0.0124	1156.73	–	–
[1], 338.15 K, w2 = 0.01241	–	–	50
[2], 298.15 K, w2 = 0.00614	–	1.5158	–
[2], 298.15 K, w2 = 0.00766	–	1.5154	–
[2], 298.15 K, w2 = 0.00917	–	1.5149	–
[2], 298.15 K, w2 = 0.01069	–	1.5144	–
[2], 298.15 K, w2 = 0.01217	–	1.514	–
[2], 303.15 K, w2 = 0.00614	–	1.5145	–
[2], 303.15 K, w2 = 0.00766	–	1.514	–
[2], 303.15 K, w2 = 0.00917	–	1.5135	–
[2], 303.15 K, w2 = 0.01069	–	1.5131	–
[2], 303.15 K, w2 = 0.01217	–	1.5125	–
[2], 308.15 K, w2 = 0.00614	–	1.5131	–
[2], 308.15 K, w2 = 0.00766	–	1.5126	–
[2], 308.15 K, w2 = 0.00917	–	1.5119	–
[2], 308.15 K, w2 = 0.01069	–	1.5115	–
[2], 308.15 K, w2 = 0.01217	–	1.5109	–
[2], 313.15 K, w2 = 0.00614	–	1.5118	–
[2], 313.15 K, w2 = 0.00766	–	1.5113	–
[2], 313.15 K, w2 = 0.00917	–	1.5106	–
[2], 313.15 K, w2 = 0.01069	–	1.5102	–
[2], 313.15 K, w2 = 0.01217	–	1.5095	–
[2], 318.15 K, w2 = 0.00614	–	1.5106	–
[2], 318.15 K, w2 = 0.00766	–	1.5099	–
[2], 318.15 K, w2 = 0.00917	–	1.5092	–
[2], 318.15 K, w2 = 0.01069	–	1.5087	–
[2], 318.15 K, w2 = 0.01217	–	1.5081	–
[2], 323.15 K, w2 = 0.00614	–	1.5094	–
[2], 323.15 K, w2 = 0.00766	–	1.5086	–
[2], 323.15 K, w2 = 0.00917	–	1.5078	–
[2], 323.15 K, w2 = 0.01069	–	1.5072	–
[2], 323.15 K, w2 = 0.01217	–	1.5065	–
[2], 328.15 K, w2 = 0.00614	–	1.5081	–
[2], 328.15 K, w2 = 0.00766	–	1.5072	–
[2], 328.15 K, w2 = 0.00917	–	1.5063	–
[2], 328.15 K, w2 = 0.01069	–	1.5056	–
[2], 328.15 K, w2 = 0.01217	–	1.505	–
[2], 333.15 K, w2 = 0.00614	–	1.5068	–
[2], 333.15 K, w2 = 0.00766	–	1.5058	–
[2], 333.15 K, w2 = 0.00917	–	1.5049	–
[2], 333.15 K, w2 = 0.01069	–	1.5042	–
[2], 333.15 K, w2 = 0.01217	–	1.5035	–
[2], 338.15 K, w2 = 0.00614	–	1.5054	–
[2], 338.15 K, w2 = 0.00766	–	1.5044	–
[2], 338.15 K, w2 = 0.00917	–	1.5036	–
[2], 338.15 K, w2 = 0.01069	–	1.5028	–
[2], 338.15 K, w2 = 0.01217	–	1.5021	–
